Source: US7326679B2, “Anticancer peptide compositions” (TranXenoGen, Inc., priority 2003, dated 2008)
“Also recorded” adds a separate entry of the source. Square brackets hold non-standard residues; d marks the D form. Ends that are not written are not given here. pGlu = O=C1CC[C@@H](C(=O)O)N1

Columns and labels:
HeLa tumor = assay: In vivo nude mice experiment, HeLa tumor growth; design: species or system Nude nu/nu mice; details: for inhibition of HeLa tumor growth during treatment phase (average tumor volume): n=3; for tumor growth profile post treatment: after fourth treatment until day 24, Pep A 500 and 750 μg, Pep B 500 μg; for response of individual tumors to treatment: tumor volumes on day 14, one day post last treatment; for vascularization and infiltration of isolated tumors (histopathology): compared to control mice
Procedure: The HeLa human cervical cancer cell line (ATCC, Manassas Va.; CCL-2) was grown according to direction in DMEM containing 10% fetal bovine serum. Cells in log phase were harvested from flasks using trypsin-EDTA (0.25% trypsin/1 mM Na-EDTA; Invitrogen), washed in PBS and resuspended in DMEM for counting and viability assessment using trypan blue exclusion. […] Cells were resuspended at 5×10^7 cells/mL in PBS for injection into the mice.
Nude nu/nu mice (4 to 5 week-old females) were acclimated for 1 week and injected with 5 million HeLa cells subcutaneously (SQ) in a total volume of 100 μL. After 3 days of tumor development, the mice were injected SQ with each peptide prepared in phosphate buffered saline (PBS) containing 0.05% sodium dodecyl sulfate (SDS) or PBS+0.05% SDS alone. All doses were 200 μL in volume, with additional treatments on days 6, 10 and 13 post-transplantation. Treatments were alternated between flanks of the mice. Tumor size and mouse weights were measured three times per week. The results represent the average of the 3 mice in each group. The experiment was terminated on day 24 and the tumors were excised for weight and histopathology.
HeLa cells (5×10^6 cells in 100 μL were administered subcutaneously (SQ). The cells were implanted in the left mid-flank region of 5 week old immunodeficient Nude nu/nu female mice (Charles River Labs, Wilmington, Mass.) and allowed to develop to palpable size (average diameter=[…]; average volume=24 mm^3). Mice were randomized and divided into experimental groups, with 3 mice per group. The mice were treated with SQ injections (200 μL) of various doses of peptide in phosphate buffered saline (PBS) containing a detergent, e.g., 0.05% sodium dodecyl sulphate (SDS). Control mice were injected with PBS containing 0.05% SDS alone. […] The treatments were administered on days 3, 6, 10 and 13 post-transplantation. Tumors were measured three times per week until the experiment was terminated on day 24 post-transplantation.

[1] = test system: neo-vascularization of early chick embryo; assay: Chick embryo neo-vascularization inhibition assay; format: in vivo, White Leghorn chick embryos; details: day-3.5 chick embryo, filter disks
Source text: This assay was completed to determine the impact of Pep A and Pep B on neo-vascularization of early chick embryo. Small windows were created through the blunt end of the shell directly over the air sac of 3.5-day old White Leghorn chick embryos with the use of a small crafts Dremel drill. The air sac was peeled-off and filter disks with different concentrations of the test peptide or buffer control were placed over a section of the developing blood ring and overlapping connecting vessels of the chick embryo. The shell windows were sealed with parafilm and eggs were incubated at 37° C. in a humidified egg incubator. After 48-72 hours, the yolk membrane tissue directly below the filter disks was resected. Tissues were washed three times with PBS and analyzed for inhibition of neo-vascularization using a stereomicroscope with photo-digital attachment.

[2] = test system: bFGF induced angiogenesis; assay: Chicken chorioallantoic membrane (CAM) assay; format: in vivo, White Leghorn chick embryos; details: for inhibition of bFGF-induced angiogenesis: day-10 chick embryos; for anti-angiogenic activity in CAM assay (overall): increasing doses, 100 ng or 200 ng bFGF, 48 hours at 37° C.
Source text: The chicken chorioallantoic membrane (CAM) assay was completed to assess the effect of the peptides on basic fibroblast growth factor (bFGF) induced angiogenesis. Small windows were created through the blunt end of the shell directly over the air sac of 9-10 day old White Leghorn chick embryos with the use of a small crafts Dremel drill. The air sac was peeled-off, and filter disks saturated with basic fibroblast growth factor (bFGF) and the test peptide (or buffer control) were placed adjacent to each other on the CAM of the chick embryo. The shell windows were sealed with parafilm and eggs were incubated at 37° C. in a humidified egg incubator. After 48-72 hours, the CAM tissue directly below the filter disks was resected. Tissues were washed three times with PBS and analyzed using a stereomicroscope. The number of branching blood vessels infiltrating under the filter disks were determined and documented.

CAM tissue cells = assay: Detection of cell death in resected CAM tissues (H-33342 and propidium iodide staining); format: in vivo, chick embryos; details: for apoptosis / DNA fragmentation (H-33342 staining): 100 ng bFGF plus 200 ng peptide
Procedure: Following staining, the tissues were washed three times in PBS and fixed in 4% formalin. The tissues were visualized under epifluorescence using a photo-digital imaging system. The number of live, apoptotic and necrotic cells were determined.

[3] = test system: OSRC human osteogenic sarcoma tumor; assay: Osteosarcoma (OSRC) tumor model in nude mice; format: in vivo, Nude nu/nu mice; details: SQ treatments on days 8, 11, 14 and 17; n=4
Procedure: Tumor cell culture and harvesting was carried out as follows. Human osteogenic sarcoma cancer cells (OSRC cell line) was grown in DMEM containing additional non-essential amino acids and vitamins and 10% heat inactivated fetal bovine serum (Invitrogen™, Carlsbad, Calif.). Cells in log phase were harvested from flasks using trypsin-EDTA (0.05% trypsin/0.53 mM Na-EDTA; Invitrogen™), washed in PBS and resuspended in DMEM for counting and viability assessment using trypan blue exclusion. Cells were resuspended at 2.5×10^7 cells per ml in PBS for injection into the mice.
Nude nu/nu mice (4 to 5 week-old females, Charles River Labs, Wilmington, Mass.) were acclimated for 1 week before injection with 2.5 million OSRC cells subcutaneously (SQ) in a total volume of 100 μl. After 8 days of tumor development, the mice were injected SQ with each peptide or the protein pool prepared in phosphate buffered saline (PBS) containing 0.05% sodium dodecyl sulfate (SDS) or PBS+0.05% SDS alone (Control). All doses were 200 μl in volume, with additional treatments on days 11, 14 and 17 post-transplantation. Treatments were alternated between flanks of the mice. Tumor size (length, width and height) and mouse weights were measured three times per week. The results (FIGS. 6A-B) represent the average of the 4 mice in each group. […]

[4] = 500 μg per dose SQ on days 3, 6, 10 and 13
[5] = 200 ng peptide with 100 ng bFGF

Substance | inhibition of HeLa tumor growth during treatment phase (average tumor volume) (HeLa tumor; [4]) | inhibition of HeLa tumor growth during treatment phase (average tumor volume) (HeLa tumor; 750 μg per dose SQ on days 3, 6, 10 and 13) | tumor growth profile post treatment (HeLa tumor) | response of individual tumors to treatment (HeLa tumor) | areas of cell death in isolated tumors (histopathology) (HeLa tumor; tumors isolated upon sacrifice) | vascularization and infiltration of isolated tumors (histopathology) (HeLa tumor; tumors isolated upon sacrifice) | suppression of neo-vascularization / branching vessel formation [1] | suppression of bFGF-induced angiogenesis ([2]; 200 ng of bFGF) | inhibition of bFGF-induced angiogenesis [2, 5] | inhibition of bFGF-induced angiogenesis ([2]; Pep A with 100 ng bFGF) | anti-angiogenic activity in CAM assay (overall) [2] | apoptosis / DNA fragmentation (H-33342 staining) (CAM tissue cells) | apoptosis / DNA fragmentation (H-33342 staining) (CAM tissue cells; listed as PepA) | osteosarcoma tumor volume (tumor burden) [3] | condensation of the cell nuclei (CAM tissue cells; compared to controls)
ELKCYTCKEPMTSASCRTIT [Pep A] | tumor inhibition during the treatment phase | tumor inhibition during the treatment phase | slight increase in tumor burden; also recorded: only limited tumor growth for the duration of the experiment | response of all animals | larger areas of cell death; also recorded: noticeably larger | significantly less vascularization and infiltration | dose dependent suppression of branching vessel formation | showed suppression | comparatively better inhibition of blood vessel infiltration | inhibition of neo-vascularization and infiltration as well as degradation of pre-existing vessels | inhibited angiogenesis; also recorded: more potent anti-angiogenic agent | Intensely staining apoptotic nuclei (white) of vascular cells; also recorded: significant increase in DNA fragmentation | induces cell death by apoptosis | reduction of osteosarcoma tumor volume | 
pyroELKCYTCKEPMTSASCRTIT ([pGlu]LKCYTCKEPMTSASCRTIT; cysteine pairing not given here) [Pep B] | tumor inhibition during the treatment phase |  | escalation of tumor burden; also recorded: lost shortly after treatment stopped | response of all animals |  | significantly less vascularization and infiltration | dose dependent suppression of branching vessel formation |  | inhibition of bFGF-induced angiogenesis |  | inhibited angiogenesis | did not demonstrate the peri-vascular apoptosis; also recorded: minimal increase in apoptosis over the control |  |  | observable condensation of the cell nuclei
6 mer: residues 5-10 of SEQ ID NO:1 (YTCKEP) |  |  |  |  |  |  |  |  |  |  |  |  |  | reduction of osteosarcoma tumor volume | 
